From patent US20250304578A1, “NITROGEN-CONTAINING FUSED HETEROCYCLIC COMPOUNDS OF N-SULFONAMIDE AND USE THEREOF” (NUTSHELL THERAPEUTICS (SHANGHAI) CO., LTD., priority 2023, published 2025)

Test: In vivo pharmacokinetic study in mice
Details: male, mouse, plasma, CD-1 mice
Description: Intravenous injection: 40% HP-β-CD in water; intragastric administration: 0.2% HPC+0.5% Tween80 in water.
6 male mice. Fasting treatment was performed in the evening before the administration, with free access to water. During the experiment, the mice were allowed to eat and drink freely, and administered by intravenous injection or gavage. After administration, the animal status was observed, and abnormal behaviors were recorded. Blood was collected from the orbit at 0.0833, 0.25, 1, 2, 4, 8, and 24 hours after intravenous injection, and at 0.25, 0.5, 1, 2, 4, 6, 8, and 24 hours after intragastric administration. 20 μL of plasma sample was taken and added with 250 μL of acetonitrile (containing dexamethasone as an internal standard) to precipitate proteins. The mixture was centrifuged at 4° C. and 4000 rpm for 20 minutes, and 180 μL of the supernatant was taken and mixed with 180 μL of an aqueous solution containing 0.1% formic acid in a 96-well plate. Then, 10 μL of the sample was taken for LC-MS/MS detection.
The standard curve was established using the internal standard method, with the theoretical standard curve concentration as the X-axis and the peak area ratio as the Y-axis (peak area of the test compound/peak area of internal standard). Linear regression method (weighting factor 1/X2) was used, R^2>0.9900. Unknown samples were calculated by the standard curve. Pharmacokinetic parameters were calculated by the non-compartmental analysis model of WinNonlin 8.2 software and were presented in a report, including Clint, Cmax, AUC, etc.

AUC(0-t) (IV 1 mg/kg): 1.7 µM·h | AUC(0-t) (PO 10 mg/kg): 15.7 µM·h | Cmax (PO 10 mg/kg): 5.9 µM
Structure (SMILES): [2H]C([2H])([2H])Oc1nc(C(=O)NS(C)(=O)=O)ccc1NCC#Cc1cc2c(N[C@@H]3CCN(C)C[C@@H]3F)cccn2c1CC(F)(F)F [Cpd-2, 5-((3-(8-(((3S,4R)-3-Fluoro-1-methylpiperidin-4-yl)amino)-3-(2,2,2-trifluoroethyl)indolizin-2-yl)prop-2-yn-1-yl)amino)-6-(methoxy-d3)-N-(methylsulfonyl)picolinamide]
